According to ChEMBL document CHEMBL2412960, “Inhibition of Mycobacterium tuberculosis strains H37Rv and MDR MS-115 by a new set of C5 modified pyrimidine nucleosides” (Bioorg Med Chem, 2013):
≈ marks a conversion by molar mass, not a printed value. Calls of active or inactive are those of the source. No cut-off for these calls is given here.

Legend:
Saccharomyces cerevisiae = assay: Antifungal activity against Saccharomyces cerevisiae RIA 259; assay type: functional, organism-based
Bacillus subtilis = assay: Antibacterial activity against Bacillus subtilis ATCC 6633; assay type: functional, organism-based
[1] = Cytotoxicity against African green monkey Vero cells after 72 hrs by MTT assay; assay type: cell-based; details: chlorocebus sabaeus, read-out: CD50
Staphylococcus aureus [2] = assay: Antibacterial activity against methicillin-resistant Staphylococcus aureus INA 00761; assay type: functional, organism-based
Aspergillus niger = assay: Antifungal activity against Aspergillus niger INA 00760; assay type: functional, organism-based
Pseudomonas aeruginosa = assay: Antibacterial activity against Pseudomonas aeruginosa ATCC 27853; assay type: functional, organism-based
[3] = test system: Mycobacterium tuberculosis; assay: Bacteriostatic activity against Mycobacterium tuberculosis H37Rv assessed as growth inhibition; assay type: functional
Escherichia coli = assay: Antibacterial activity against Escherichia coli ATCC 25922; assay type: functional, organism-based
Bacillus pumilus = assay: Antibacterial activity against Bacillus pumilus NCTC 8241; assay type: functional, organism-based
[4] = test system: Leuconostoc mesenteroides; assay: Antibacterial activity against vancomycin-resistant Leuconostoc mesenteroides VKPM B-4177; assay type: functional
Bacillus mycoides = assay: Antibacterial activity against Bacillus mycoides 537; assay type: functional, organism-based
[5] = test system: Mycobacterium tuberculosis; assay: Bacteriostatic activity against Mycobacterium tuberculosis H37Rv assessed as growth inhibition at 40 ug/mL relative to control; assay type: functional; details: read-out: GI
Micrococcus luteus = assay: Antibacterial activity against Micrococcus luteus NCTC 8340; assay type: functional, organism-based
[6] = Cytotoxicity against human Jurkat cells after 72 hrs by MTT assay; assay type: cell-based; details: read-out: CD50
[7] = Cytotoxicity against human A549 cells after 72 hrs by MTT assay; assay type: cell-based; details: read-out: CD50
Staphylococcus aureus [8] = assay: Antibacterial activity against methicillin-susceptible Staphylococcus aureus FDA 209P; assay type: functional, organism-based
[9] = test system: Mycobacterium tuberculosis; assay: Bacteriostatic activity against Mycobacterium tuberculosis H37Rv assessed as growth inhibition at 20 ug/mL relative to control; assay type: functional; details: read-out: GI
[10] = test system: Mycobacterium tuberculosis; assay: Bacteriostatic activity against Mycobacterium tuberculosis H37Rv assessed as growth inhibition at 10 ug/mL relative to control; assay type: functional; details: read-out: GI
[11] = test system: Mycobacterium tuberculosis; assay: Bacteriostatic activity against Mycobacterium tuberculosis H37Rv assessed as growth inhibition at 5 ug/mL relative to control; assay type: functional; details: read-out: GI
[12] = test system: Mycobacterium tuberculosis; assay: Bacteriostatic activity against Mycobacterium tuberculosis H37Rv assessed as growth inhibition at 50 ug/mL relative to control; assay type: functional; details: read-out: GI
[13] = test system: Mycobacterium tuberculosis; assay: Bacteriostatic activity against Mycobacterium tuberculosis H37Rv assessed as growth inhibition at 100 ug/mL relative to control; assay type: functional; details: read-out: GI

CCCCCCCCCCCOCc1cn([C@H]2C[C@H](O)[C@@H](CO)O2)c(=O)[nH]c1=O
Activity (Saccharomyces cerevisiae): inactive
Activity (Bacillus subtilis): inactive
CC50 at 72 h [1]: > 100 µg/mL
Activity (Staphylococcus aureus [2]): inactive
Activity (Aspergillus niger): inactive
Activity (Pseudomonas aeruginosa): inactive
MIC99 [3]: 20 µg/mL (≈ 48.5 µM)
Activity (Escherichia coli): inactive
Activity (Bacillus pumilus): inactive
Activity [4]: inactive
Activity (Bacillus mycoides): inactive
inhibition of growth at 40 µg/mL [5]: 100%
Activity (Micrococcus luteus): inactive
CC50 at 72 h [6]: 70 µg/mL (≈ 170 µM)
CC50 at 72 h [7]: 90 µg/mL (≈ 218 µM)
Activity (Staphylococcus aureus [8]): inactive
inhibition of growth at 20 µg/mL [9]: 99%

NNC(=O)c1ccncc1 [ISONIAZID]
MIC99 [3]: 0.1 µg/mL (≈ 0.729 µM)

CC1COc2c(N3CCN(C)CC3)c(F)cc3c(=O)c(C(=O)O)cn1c23 (centres undefined) [OFLOXACIN]
MIC99 [3]: 2 µg/mL (≈ 5.53 µM)

CCCCCCCCc1cn(Cc2cn([C@H]3C[C@H](O)[C@@H](CO)O3)c(=O)nc2N)nn1
CC50 at 72 h [1]: > 100 µg/mL
MIC99 [3]: 40 µg/mL (≈ 95.1 µM)
inhibition of growth at 40 µg/mL [5]: 100%
CC50 at 72 h [6]: > 100 µg/mL
CC50 at 72 h [7]: > 100 µg/mL
inhibition of growth at 20 µg/mL [9]: 90%

CCCCCCCCCCc1cn(Cc2cn([C@H]3C[C@H](O)[C@@H](CO)O3)c(=O)[nH]c2=O)nn1
Activity (Saccharomyces cerevisiae): inactive
Activity (Bacillus subtilis): inactive
CC50 at 72 h [1]: > 100 µg/mL
Activity (Staphylococcus aureus [2]): inactive
Activity (Aspergillus niger): inactive
Activity (Pseudomonas aeruginosa): inactive
MIC99 [3]: 10 µg/mL (≈ 22.2 µM)
Activity (Escherichia coli): inactive
inhibition of growth at 10 µg/mL [10]: 100%
Activity (Bacillus pumilus): inactive
Activity [4]: inactive
Activity (Bacillus mycoides): inactive
Activity (Micrococcus luteus): inactive
CC50 at 72 h [6]: 100 µg/mL (≈ 222 µM)
inhibition of growth at 5 µg/mL [11]: 90%
CC50 at 72 h [7]: 100 µg/mL (≈ 222 µM)
Activity (Staphylococcus aureus [8]): inactive

CCCCCCCCCCCCOCc1cn([C@H]2C[C@H](O)[C@@H](CN=[N+]=[N-])O2)c(=O)[nH]c1=O
inhibition of growth at 50 µg/mL [12]: 100%
CC50 at 72 h [1]: > 100 µg/mL
inhibition of growth at 100 µg/mL [13]: 100%
MIC99 [3]: 10 µg/mL (≈ 22.1 µM)
inhibition of growth at 10 µg/mL [10]: 99%
CC50 at 72 h [6]: 18 µg/mL (≈ 39.9 µM)
inhibition of growth at 5 µg/mL [11]: 75%
CC50 at 72 h [7]: 20 µg/mL (≈ 44.3 µM)
inhibition of growth at 20 µg/mL [9]: 100%

CCCCCCCCCCCCc1cn(Cc2cn([C@H]3C[C@H](O)[C@@H](CO)O3)c(=O)nc2N)nn1
CC50 at 72 h [1]: > 100 µg/mL
MIC99 [3]: 10 µg/mL (≈ 21 µM)
inhibition of growth at 10 µg/mL [10]: 99%
CC50 at 72 h [6]: 100 µg/mL (≈ 210 µM)
inhibition of growth at 5 µg/mL [11]: 75%
CC50 at 72 h [7]: 100 µg/mL (≈ 210 µM)
inhibition of growth at 20 µg/mL [9]: 100%

CCCCCCCCc1cn(Cc2cn([C@H]3C[C@H](O)[C@@H](CO)O3)c(=O)[nH]c2=O)nn1
Activity (Saccharomyces cerevisiae): inactive
Activity (Bacillus subtilis): inactive
CC50 at 72 h [1]: > 100 µg/mL
Activity (Staphylococcus aureus [2]): inactive
Activity (Aspergillus niger): inactive
Activity (Pseudomonas aeruginosa): inactive
MIC99 [3]: 20 µg/mL (≈ 47.4 µM)
Activity (Escherichia coli): inactive
inhibition of growth at 10 µg/mL [10]: 90%
Activity (Bacillus pumilus): inactive
Activity [4]: inactive
Activity (Bacillus mycoides): inactive
inhibition of growth at 40 µg/mL [5]: 100%
Activity (Micrococcus luteus): inactive
CC50 at 72 h [6]: > 100 µg/mL
CC50 at 72 h [7]: > 100 µg/mL
Activity (Staphylococcus aureus [8]): inactive
inhibition of growth at 20 µg/mL [9]: 99%

CCCCCCCCCCCCc1cn(Cc2cn([C@H]3C[C@H](O)[C@@H](CO)O3)c(=O)[nH]c2=O)nn1
Activity (Saccharomyces cerevisiae): inactive
Activity (Bacillus subtilis): inactive
CC50 at 72 h [1]: > 100 µg/mL
Activity (Staphylococcus aureus [2]): inactive
Activity (Aspergillus niger): inactive
Activity (Pseudomonas aeruginosa): inactive
MIC99 [3]: 10 µg/mL (≈ 20.9 µM)
Activity (Escherichia coli): inactive
inhibition of growth at 10 µg/mL [10]: 99%
Activity (Bacillus pumilus): inactive
Activity [4]: inactive
Activity (Bacillus mycoides): inactive
inhibition of growth at 40 µg/mL [5]: 100%
Activity (Micrococcus luteus): inactive
CC50 at 72 h [6]: > 100 µg/mL
inhibition of growth at 5 µg/mL [11]: 90%
CC50 at 72 h [7]: > 100 µg/mL
Activity (Staphylococcus aureus [8]): inactive
inhibition of growth at 20 µg/mL [9]: 99%

CCCCCCCCCCc1cn(Cc2cn([C@H]3C[C@H](O)[C@@H](CO)O3)c(=O)nc2N)nn1
CC50 at 72 h [1]: > 100 µg/mL
MIC99 [3]: 40 µg/mL (≈ 89.2 µM)
inhibition of growth at 40 µg/mL [5]: 100%
CC50 at 72 h [6]: 100 µg/mL (≈ 223 µM)
CC50 at 72 h [7]: 100 µg/mL (≈ 223 µM)
inhibition of growth at 20 µg/mL [9]: 90%

CCCCCCCCCCCCOCc1cn([C@H]2C[C@H](N)[C@@H](CO)O2)c(=O)[nH]c1=O
CC50 at 72 h [1]: 50 µg/mL (≈ 117 µM)
MIC99 [3]: > 20 µg/mL
inhibition of growth at 10 µg/mL [10]: 25%
CC50 at 72 h [6]: 7 µg/mL (≈ 16.4 µM)
CC50 at 72 h [7]: 8 µg/mL (≈ 18.8 µM)
inhibition of growth at 20 µg/mL [9]: 90%

CCCCCCCCCCCCOCc1cn([C@H]2C[C@H](N(CC)CC)[C@@H](CO)O2)c(=O)[nH]c1=O
inhibition of growth at 50 µg/mL [12]: 100%
CC50 at 72 h [1]: 7.5 µg/mL (≈ 15.6 µM)
inhibition of growth at 100 µg/mL [13]: 100%
MIC99 [3]: 20 µg/mL (≈ 41.5 µM)
inhibition of growth at 10 µg/mL [10]: 75%
CC50 at 72 h [6]: 5 µg/mL (≈ 10.4 µM)
CC50 at 72 h [7]: 5 µg/mL (≈ 10.4 µM)
inhibition of growth at 20 µg/mL [9]: 99%

CCCCCCCCCCCCOCc1cn([C@H]2C[C@H](O)[C@@H](CI)O2)c(=O)[nH]c1=O
inhibition of growth at 50 µg/mL [12]: 100%
CC50 at 72 h [1]: 70 µg/mL (≈ 130 µM)
MIC99 [3]: 10 µg/mL (≈ 18.6 µM)
inhibition of growth at 10 µg/mL [10]: 100%
CC50 at 72 h [6]: > 100 µg/mL
inhibition of growth at 5 µg/mL [11]: 90%
CC50 at 72 h [7]: > 100 µg/mL
inhibition of growth at 20 µg/mL [9]: 100%

CCCCCCCCCCCCOCc1cn([C@H]2C[C@H](O)[C@@H](CN)O2)c(=O)[nH]c1=O
inhibition of growth at 50 µg/mL [12]: 100%
CC50 at 72 h [1]: 14 µg/mL (≈ 32.9 µM)
inhibition of growth at 100 µg/mL [13]: 100%
MIC99 [3]: 20 µg/mL (≈ 47 µM)
inhibition of growth at 10 µg/mL [10]: 50%
CC50 at 72 h [6]: 7 µg/mL (≈ 16.4 µM)
CC50 at 72 h [7]: 8 µg/mL (≈ 18.8 µM)
inhibition of growth at 20 µg/mL [9]: 100%

CCCCCCCCCCOCc1cn([C@H]2C[C@H](O)[C@@H](CO)O2)c(=O)[nH]c1=O
Activity (Saccharomyces cerevisiae): inactive
Activity (Bacillus subtilis): inactive
CC50 at 72 h [1]: > 100 µg/mL
Activity (Staphylococcus aureus [2]): inactive
Activity (Aspergillus niger): inactive
Activity (Pseudomonas aeruginosa): inactive
MIC99 [3]: 40 µg/mL (≈ 100 µM)
Activity (Escherichia coli): inactive
Activity (Bacillus pumilus): inactive
Activity [4]: inactive
Activity (Bacillus mycoides): inactive
inhibition of growth at 40 µg/mL [5]: 99%
Activity (Micrococcus luteus): inactive
Activity (Staphylococcus aureus [8]): inactive

CCCCCCCCCCCCOCc1cn([C@H]2C[C@H](NCC)[C@@H](CO)O2)c(=O)[nH]c1=O
inhibition of growth at 50 µg/mL [12]: 100%
CC50 at 72 h [1]: 13 µg/mL (≈ 28.7 µM)
inhibition of growth at 100 µg/mL [13]: 100%
MIC99 [3]: 10 µg/mL (≈ 22 µM)
inhibition of growth at 10 µg/mL [10]: 99%
CC50 at 72 h [6]: 5 µg/mL (≈ 11 µM)
inhibition of growth at 5 µg/mL [11]: 75%
CC50 at 72 h [7]: 5 µg/mL (≈ 11 µM)
inhibition of growth at 20 µg/mL [9]: 100%
